Experimental data: patent US9765056B2, “Indole and pyrrole compounds, a process for their preparation and pharmaceutical compositions containing them” (LES LABORATOIRES SERVIER, priority 2013, dated 2017)
Counter-ions that a name gives are not always drawn.

Tests used:
[1] = test system: RS4;11 leukaemia tumour line; assay: In vitro cytotoxicity, Microculture Tetrazolium Assay (MTT); format: cell-based; settings: Homo sapiens; RS4;11 cells, 48 hours exposure
Experimental: The cytotoxicity studies were carried out on the RS4;11 leukaemia tumour line.
The cells are distributed onto microplates and exposed to the test compounds for 48 hours. The cell viability is then quantified by a colorimetric assay, the Microculture Tetrazolium Assay (Cancer Res., 1987, 47, 939-942).

Bcl-2 protein = Bcl-2 protein (histag-Bcl-2, UniProtKB P10415) (Homo sapiens (Human), UniProt P10415); assay: Inhibition of Bcl-2 by the fluorescence polarisation technique; format: binding; settings: fluorescence polarisation test; method A, or method B where underlined (underlining not visible); read-out: IC50 (nM) Bcl-2 FP
Source text: Inhibition of Bcl-2 by the fluorescence polarisation technique

Chain of Bcl-2 protein (P10415 whole entry): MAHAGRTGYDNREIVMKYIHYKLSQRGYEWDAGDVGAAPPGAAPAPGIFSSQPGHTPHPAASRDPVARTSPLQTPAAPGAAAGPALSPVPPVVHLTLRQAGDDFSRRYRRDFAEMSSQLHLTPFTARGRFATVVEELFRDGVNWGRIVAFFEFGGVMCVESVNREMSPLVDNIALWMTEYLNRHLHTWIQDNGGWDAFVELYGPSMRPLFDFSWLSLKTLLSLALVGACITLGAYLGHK

Compound	IC50 [1]	IC50 (Bcl-2 protein)
COc1cc(-n2cc(C(=O)N(c3ccccc3)c3ccc(F)cc3)c3ccccc32)c(C(=O)N2Cc3ccccc3C[C@H]2CN2CCN(C)CC2)cc1O [Example 190, N-(4-Fluorophenyl)-1-{4-hydroxy-5-methoxy-2-[(3S)-3-[(4-methylpiperazin-1-yl)methyl]-1,2,3,4-tetrahydroisoquinoline-2-carbonyl]phenyl}-N-phenyl-1H-indole-3-carboxamide dihydrochloride]	645 nM	13.6 nM
NC[C@@H]1Cc2ccccc2CN1C(=O)c1cc(NCc2ccccc2)ccc1-n1nc(C(=O)N(c2ccccc2)c2ccccc2)c2ccccc21 [Example 142, 1-{2-[(3S)-3-(Aminomethyl)-1,2,3,4-tetrahydroisoquinoline-2-carbonyl]-4-(benzylamino)phenyl}-N,N-diphenyl-1H-indazole-3-carboxamide]	2290 nM	70.6 nM
O=C(c1cn(-c2ccccc2C(=O)N2Cc3ccccc3C[C@H]2CO)c2ccccc12)N(c1ccccc1)c1ccc(O)cc1 [Example 172, 1-{2-[(3S)-3-(Hydroxymethyl)-1,2,3,4-tetrahydroisoquinoline-2-carbonyl]phenyl}-N-(4-hydroxyphenyl)-N-phenyl-1H-indole-3-carboxamide]	1200 nM	4.2 nM
CN1CCN(C[C@@H]2Cc3ccccc3CN2C(=O)c2cc3c(cc2-n2cc(C(=O)N(c4ccc(O)c(F)c4)c4ccc5c(ccn5C)c4)c4ccccc42)OCO3)CC1 [Example 97, N-(3-Fluoro-4-hydroxyphenyl)-N-(1-methyl-1H-indol-5-yl)-1-(6-{[(3S)-3-[(4-methylpiperazin-1-yl)methyl]-3,4-dihydroisoquinolin-2(1H)-yl]carbonyl}-1,3-benzodioxol-5-yl)-1H-indole-3-carboxamide hydrochloride]	73.2 nM	6.1 nM
NC[C@@H]1Cc2ccccc2CN1C(=O)c1ccccc1-n1nc(C(=O)N(c2ccccc2)c2ccccc2)c2ccccc21 [Example 122, 1-{2-[(3S)-3-(Aminomethyl)-1,2,3,4-tetrahydroisoquinoline-2-carbonyl]phenyl}-N,N-diphenyl-1H-indazole-3-carboxamide]	2290 nM	53.3 nM
Cc1ccc(N(C(=O)c2cn(-c3cc4c(cc3C(=O)N3Cc5ccccc5C[C@H]3CN3CCN(C)CC3)OCO4)c3ccccc23)c2ccc(O)c(Cl)c2)cc1 [Example 63, N-(3-Chloro-4-hydroxyphenyl)-N-(4-methylphenyl)-1-(6-{[(3S)-3-[(4-methylpiperazin-1-yl)methyl]-3,4-dihydroisoquinolin-2(1H)-yl]carbonyl}-1,3-benzodioxol-5-yl)-1H-indole-3-carboxamide hydrochloride]	1510 nM	168 nM
CN1CCN(C[C@@H]2Cc3ccccc3CN2C(=O)c2ccc(Cl)cc2-n2cc(C(=O)N(c3ccccc3)c3ccc(O)cc3)c3ccccc32)CC1 [Example 159, 1-{5-Chloro-2-[(3S)-3-[(4-methylpiperazin-1-yl)methyl]-1,2,3,4-tetrahydroisoquinoline-2-carbonyl]phenyl}-N-(4-hydroxyphenyl)-N-phenyl-1H-indole-3-carboxamide]	191 nM	10.2 nM
Cc1cc(C(=O)N(c2ccccc2)c2ccc(O)cc2)cn1-c1cc(O)ccc1C(=O)N1Cc2ccccc2C[C@H]1CN1CCN(C)CC1 [Example 17, 1-(5-Hydroxy-2-{[(3S)-3-[(4-methylpiperazin-1-yl)methyl]-3,4-dihydroisoquinolin-2(1H)-yl]carbonyl}phenyl)-N-(4-hydroxyphenyl)-5-methyl-N-phenyl-1H-pyrrole-3-carboxamide]	1010 nM	11.4 nM
CN1CCN(C[C@@H]2Cc3ccccc3CN2C(=O)c2ccc(Cl)cc2-n2cc(C(=O)N(c3ccc(O)cc3)c3ccc(O)cc3)c3ccccc32)CC1 [Example 73, 1-(5-Chloro-2-{[(3S)-3-[(4-methylpiperazin-1-yl)methyl]-3,4-dihydroisoquinolin-2(1H)-yl]carbonyl}phenyl)-N,N-bis(4-hydroxyphenyl)-1H-indole-3-carboxamide]	51.4 nM	3.9 nM
Cc1ccc(N(C(=O)c2cc(C)n(-c3cc4c(cc3C(=O)N3Cc5ccccc5C[C@H]3CN3CCN(C)CC3)OCO4)c2)c2ccc(O)cc2)cc1 [Example 96, N-(4-Hydroxyphenyl)-5-methyl-N-(4-methylphenyl)-1-(6-{[(3S)-3-[(4-methylpiperazin-1-yl)methyl]-3,4-dihydroisoquinolin-2(1H)-yl]carbonyl}-1,3-benzodioxol-5-yl)-1H-pyrrole-3-carboxamide]	157 nM	3.9 nM
COc1cc(-n2cc(C(=O)N(c3ccccc3)c3ccc(O)cc3)c3ccccc32)c(C(=O)N2Cc3ccccc3C[C@H]2CN2CCN(C)CC2)cc1O [Example 165, 1-{4-Hydroxy-5-methoxy-2-[(3S)-3-[(4-methylpiperazin-1-yl)methyl]-1,2,3,4-tetrahydroisoquinoline-2-carbonyl}phenyl]-N-(4-hydroxyphenyl)-N-phenyl-1H-indole-3-carboxamide dihydrochloride]	179 nM	3.2 nM
Cc1cc(C(=O)N(c2ccc(O)cc2)c2ccc(F)cc2)cn1-c1cc(Br)ccc1C(=O)N1Cc2ccccc2C[C@H]1CN1CCN(C)CC1 [Example 50, 1-(5-Bromo-2-{[(3S)-3-[(4-methylpiperazin-1-yl)methyl]-3,4-dihydroisoquinolin-2(1H)-yl]carbonyl}phenyl)-N-(4-fluorophenyl)-N-(4-hydroxyphenyl)-5-methyl-1H-pyrrole-3-carboxamide]	301 nM	7.4 nM
NC[C@@H]1Cc2ccccc2CN1C(=O)c1cc(NC(=O)CSc2ccccc2)ccc1-n1nc(C(=O)N(c2ccccc2)c2ccccc2)c2ccccc21 [Example 149, 1-{2-[(3S)-3-(Aminomethyl)-1,2,3,4-tetrahydroisoquinoline-2-carbonyl]-4-[2-(phenylsulphanyl)acetamido]phenyl}-N,N-diphenyl-1H-indazole-3-carboxamide]	340 nM	21.6 nM
NC[C@@H]1Cc2ccccc2CN1C(=O)c1ccc(Cl)cc1-n1cc(C(=O)N(c2ccccc2)c2ccc(O)cc2)c2ccccc21 [Example 156, 1-{2-[(3S)-3-(Aminomethyl)-1,2,3,4-tetrahydroisoquinoline-2-carbonyl]-5-chlorophenyl}-N-(4-hydroxyphenyl)-N-phenyl-1H-indole-3-carboxamide]	450 nM	11.7 nM
CN1CCN(C[C@@H]2Cc3ccccc3CN2C(=O)c2ccc(Cl)cc2-n2cc(C(=O)N(c3ccc(O)cc3)c3ccc(F)cc3)c3ccccc32)CC1 [Example 75, 1-(5-Chloro-2-{[(3S)-3-[(4-methylpiperazin-1-yl)methyl]-3,4-dihydroisoquinolin-2(1H)-yl]carbonyl}phenyl)-N-(4-fluorophenyl)-N-(4-hydroxyphenyl)-1H-indole-3-carboxamide]	184 nM	7.1 nM
Cc1cc(C(=O)N(c2ccc(O)cc2)c2ccc3[nH]ccc3c2)cn1-c1cc2c(cc1C(=O)N1Cc3ccccc3C[C@H]1CN1CCN(C)CC1)OCO2 [Example 87, N-(4-Hydroxyphenyl)-N-(1H-indol-5-yl)-5-methyl-1-(6-{[(3S)-3-[(4-methylpiperazin-1-yl)methyl]-3,4-dihydroisoquinolin-2(1H)-yl]carbonyl}-1,3-benzodioxol-5-yl)-1H-pyrrole-3-carboxamide]	138 nM	4.4 nM
Cc1cc(C(=O)N(c2ccccc2)c2ccccc2)cn1-c1cc(O)ccc1C(=O)N1Cc2ccccc2C[C@H]1CN [Example 6, 1-(2-{[(3S)-3-(Aminomethyl)-3,4-dihydroisoquinolin-2(1H)-yl]-carbonyl}-5-hydroxyphenyl)-5-methyl-N,N-diphenyl-1H-pyrrole-3-carboxamide]	915 nM	50.5 nM
CN1CCN(C[C@@H]2Cc3ccccc3CN2C(=O)c2ccccc2-n2cc(C(=O)N(c3ccccc3)c3ccc(O)cc3)c3ccccc32)CC1 [Example 155, N-(4-Hydroxyphenyl)-1-{2-[(3S)-3-[(4-methylpiperazin-1-yl)methyl]-1,2,3,4-tetrahydroisoquinoline-2-carbonyl}phenyl]-N-phenyl-1H-indole-3-carboxamide]	246 nM	13.2 nM
Cc1cc(C(=O)N(c2ccc(O)cc2)c2ccc3[nH]ccc3c2)cn1-c1cc(Br)ccc1C(=O)N1Cc2ccccc2C[C@H]1CN1CCC(F)(F)CC1 [Example 79, 1-(5-Bromo-2-{[(3S)-3-[(4,4-difluoropiperidin-1-yl)methyl]-3,4-dihydroisoquinolin-2(1H)-yl]carbonyl}phenyl)-N-(4-hydroxyphenyl)-N-(1H-indol-5-yl)-5-methyl-1H-pyrrole-3-carboxamide]	344 nM	85.5 nM
COc1ccc(C(=O)N2Cc3ccccc3C[C@H]2CN)c(-n2cc(C(=O)N(c3ccccc3)c3ccc(O)cc3)c3ccccc32)c1 [Example 146, 1-{2-[(3S)-3-(Aminomethyl)-1,2,3,4-tetrahydroisoquinoline-2-carbonyl]-5-methoxyphenyl}-N-(4-hydroxyphenyl)-N-phenyl-1H-indole-3-carboxamide]	346 nM	17.2 nM
Cc1cc(C(=O)N(c2ccccc2)c2ccc(O)cc2)cn1-c1cc(Cl)ccc1C(=O)N1Cc2ccccc2C[C@H]1CN(C)C [Example 13, 1-(5-Chloro-2-{[(3S)-3-[(dimethylamino)methyl]-3,4-dihydroisoquinolin-2(1H)-yl]carbonyl}phenyl)-N-(4-hydroxyphenyl)-5-methyl-N-phenyl-1H-pyrrole-3-carboxamide]	462 nM	16.2 nM
COc1cc(-n2cc(C(=O)N(c3ccccc3)c3ccc(O)cc3)c3ccccc32)c(C(=O)N2Cc3ccccc3C[C@H]2CN2CCCCC2)cc1O [Example 176, 1-{4-Hydroxy-5-methoxy-2-[(3S)-3-(piperidin-1-ylmethyl)-1,2,3,4-tetrahydroisoquinoline-2-carbonyl]phenyl}-N-(4-hydroxyphenyl)-N-phenyl-1H-indole-3-carboxamide hydrochloride]	225 nM	6.2 nM
